From patent publication US20220062240A1, “METHODS OF TREATING CANCER USING A CLK INHIBITOR” (BioSplice Therapeutics, Inc., priority 2018, published 2022)
pEC50: −log10 of the molar value. Read-outs that look alike come from different tables or passages of the source. Blank lines part the entries; values can stand above or below the molecule they belong to.

Experiments:
Type in all cases: cell-based
[1] = test system: ovarian cancer (4 cell lines); experiment: CellTiter-Glo Viability Assay, ovarian cancer; settings: Homo sapiens, inhibition of cancer cell proliferation
[2] = test system: lung cancer (4 cell lines); experiment: CellTiter-Glo Viability Assay, lung cancer; settings: Homo sapiens, inhibition of cancer cell proliferation
[3] = test system: haematopoietic & lymphoid tumors (13 cell lines); experiment: CellTiter-Glo Viability Assay, haematopoietic & lymphoid tumors; settings: Homo sapiens, inhibition of cancer cell proliferation
[4] = test system: colorectal cancer (6 cell lines); experiment: CellTiter-Glo Viability Assay, colorectal cancer; settings: Homo sapiens, inhibition of cancer cell proliferation
[5] = test system: prostate cancer (5 cell lines); experiment: CellTiter-Glo Viability Assay, prostate cancer; settings: Homo sapiens
[6] = test system: pancreatic cancer (8 cell lines); experiment: CellTiter-Glo Viability Assay, pancreatic cancer; settings: Homo sapiens, inhibition of cancer cell proliferation
[7] = test system: all 50 cell lines; experiment: CellTiter-Glo Viability Assay, average across all cell lines; settings: Homo sapiens; across all 50 cell lines; read-out: average EC50 for inhibition of cancer cell proliferation
Outline: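 Luminescent ATP read-out (CellTiter-Glo) after a 4-day compound exposure at 37° C served as the viability measure. Cells were seeded at 300-3,000/well, compound wells run in duplicate against DMSO controls, and EC50 values came from fitted dose-response curves.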

[8] = test system: ZR-75-1; experiment: CellTiter-Glo Viability Assay, breast cancer; settings: Homo sapiens, 96 h; ZR-75-1, breast cancer, four days; read-out: EC50
[9] = test system: DU4475; experiment: CellTiter-Glo Viability Assay, breast cancer; settings: Homo sapiens, DU-4475, 96 h; DU4475, breast cancer, four days; read-out: EC50
[10] = test system: T47D; experiment: CellTiter-Glo Viability Assay, breast cancer; settings: Homo sapiens, 96 h, breast cancer, four days, read-out: EC50
[11] = test system: BT-549; experiment: CellTiter-Glo Viability Assay, breast cancer; settings: Homo sapiens, 96 h; BT-549, breast cancer, four days; read-out: EC50
[12] = test system: MDA-MB-231-Luc; experiment: CellTiter-Glo Viability Assay, breast cancer; settings: Homo sapiens, 96 h; MDA-MB-231-Luc, breast cancer, four days; read-out: EC50
[13] = test system: CAMA1; experiment: CellTiter-Glo Viability Assay, breast cancer; settings: Homo sapiens, CAMA-1, 96 h; CAMA1, breast cancer, four days; read-out: EC50
[14] = test system: HCC1599; experiment: CellTiter-Glo Viability Assay, breast cancer; settings: Homo sapiens, 96 h; HCC1599, breast cancer, four days; read-out: EC50
[15] = test system: MCF7; experiment: CellTiter-Glo Viability Assay, breast cancer; settings: Homo sapiens, 96 h; MCF7, breast cancer, four days; read-out: EC50
[16] = test system: liver cancer (3 cell lines); experiment: CellTiter-Glo Viability Assay, liver cancer; settings: Homo sapiens, inhibition of cancer cell proliferation
[17] = PA-1, PA1 cell line, read-out: Ovarian cancer, EC50 (μM) PA1
[18] = TOV112D, TOV-112D cell line, read-out: Ovarian cancer, EC50 (μM) TOV-112D
[19] = OV-90 cell line, read-out: Ovarian cancer, EC50 (μM) OV-90
[20] = OVCAR-3 cell line, read-out: Ovarian cancer, EC50 (μM) OVCAR-3
[21] = A-427, A427 cell line, read-out: Lung cancer, EC50 (μM) A427
[22] = HCC78, HCC-78 cell line, read-out: Lung cancer, EC50 (μM) HCC-78
[23] = NCI-H460 cell line, read-out: Lung cancer, EC50 (μM) NCI-H460
[24] = NCI-H522 cell line, read-out: Lung cancer, EC50 (μM) NCI-H522
[25] = DND41, DND-41 cell line, read-out: Haematopoietic & Lymphoid tumors, EC50 (μM) DND-41
[26] = MV4-11, MV-4-11 cell line, read-out: Haematopoietic & Lymphoid tumors, EC50 (μM) MV-4-11
[27] = Rec1, REC-1 cell line, read-out: Haematopoietic & Lymphoid tumors, EC50 (μM) REC-1
[28] = SU-DHL-4, SUDHL4 cell line, read-out: Haematopoietic & Lymphoid tumors, EC50 (μM) SUDHL4
[29] = HL-60 cell line, read-out: Haematopoietic & Lymphoid tumors, EC50 (μM) HL-60
[30] = JM1 cell line, read-out: Haematopoietic & Lymphoid tumors, EC50 (μM) JM1
[31] = JURKAT, Clone E6-1 cell line, read-out: Haematopoietic & Lymphoid tumors, EC50 (μM) JURKAT, Clone E6-1
[32] = JeKo-1 cell line, read-out: Haematopoietic & Lymphoid tumors, EC50 (μM) JeKo-1
[33] = KASUMI-1 cell line, read-out: Haematopoietic & Lymphoid tumors, EC50 (μM) KASUMI-1
[34] = Loucy cell line, read-out: Haematopoietic & Lymphoid tumors, EC50 (μM) Loucy
[35] = MOLT-4 cell line, read-out: Haematopoietic & Lymphoid tumors, EC50 (μM) MOLT-4
[36] = TF-1 cell line, read-out: Haematopoietic & Lymphoid tumors, EC50 (μM) TF-1
[37] = TOLEDO cell line, read-out: Haematopoietic & Lymphoid tumors, EC50 (μM) TOLEDO
[38] = HCT-116, HCT116 cell line, read-out: Colorectal cancer, EC50 (μM) HCT116
[39] = HT-29, HT29 cell line, read-out: Colorectal cancer, EC50 (μM) HT29
[40] = SW-620, SW620 cell line, read-out: Colorectal cancer, EC50 (μM) SW620
[41] = DLD-1 cell line, read-out: Colorectal cancer, EC50 (μM) DLD-1
[42] = SW48 cell line, read-out: Colorectal cancer, EC50 (μM) SW48
[43] = SW480 cell line, read-out: Colorectal cancer, EC50 (μM) SW480
[44] = DU-145, read-out: Prostate cancer EC50 Du-145
[45] = PC-3, PC3 cell line, inhibition of cancer cell proliferation, read-out: Prostate cancer EC50 PC3
[46] = 22Rv1 cell line, inhibition of cancer cell proliferation, read-out: Prostate cancer EC50 22Rv1
[47] = LNCap clone FGC cell line, inhibition of cancer cell proliferation, read-out: Prostate cancer EC50 LNCap clone FGC
[48] = VCaP (Sigma) cell line, inhibition of cancer cell proliferation, read-out: Prostate cancer EC50 VCaP (Sigma)
[49] = BXPC-3, BxPC3 cell line, read-out: Pancreatic cancer, EC50 BxPC3
[50] = CAPAN-1, Capan1 cell line, read-out: Pancreatic cancer, EC50 Capan1
[51] = Capan-2, Capan2 cell line, read-out: Pancreatic cancer, EC50 Capan2
[52] = MIA PaCa-2 cell line, read-out: Pancreatic cancer, EC50 MIA PaCa-2
[53] = PANC 05.04 cell line, read-out: Pancreatic cancer, EC50 PANC 05.04
[54] = PANC-1 cell line, read-out: Pancreatic cancer, EC50 PANC-1
[55] = UPAFII cell line, read-out: Pancreatic cancer, EC50 UPAFII
[56] = SNU-398, SNU398 cell line, read-out: Liver cancer, EC50 SNU398
[57] = HEPG2 cell line, read-out: Liver cancer, EC50 HEPG2
[58] = PLC/PRF/5 cell line, read-out: Liver cancer, EC50 PLC/PRF/5

EC50 [1, 17]: 0.12 µM | EC50 [1, 18]: 0.108 µM | EC50 [1, 19]: 0.256 µM | EC50 [1, 20]: 0.067 µM | EC50 [2, 21]: 0.114 µM | EC50 [2, 22]: 0.19 µM | EC50 [2, 23]: 0.196 µM | EC50 [2, 24]: 0.079 µM | EC50 [3, 25]: 0.154 µM | EC50 [3, 26]: 0.042 µM | EC50 [3, 27]: 0.045 µM | EC50 [3, 28]: 0.155 µM | EC50 [3, 29]: 0.449 µM | EC50 [3, 30]: 0.044 µM | EC50 [3, 31]: 0.333 µM | EC50 [3, 32]: 0.046 µM | EC50 [3, 33]: 0.119 µM | EC50 [3, 34]: 0.142 µM | EC50 [3, 35]: 0.162 µM | EC50 [3, 36]: 0.225 µM | EC50 [3, 37]: 0.046 µM | EC50 [4, 38]: 0.102 µM | EC50 [4, 39]: 0.187 µM | EC50 [4, 40]: 0.067 µM | EC50 [4, 41]: 0.141 µM | EC50 [4, 42]: 0.051 µM | EC50 [4, 43]: 0.143 µM | pEC50 [5, 44]: 6.68 | pEC50 [5, 45]: 6.80 | pEC50 [5, 46]: 6.95 | pEC50 [5, 47]: 6.52 | pEC50 [5, 48]: 6.48 | pEC50 [6, 49]: 6.55 | pEC50 [6, 50]: 6.82 | pEC50 [6, 51]: 6.54 | pEC50 [6, 52]: 7.08 | pEC50 [6, 53]: 6.86 | pEC50 [6, 54]: 6.60 | pEC50 [6, 55]: 7.08 | pEC50 [8]: 6.75 | pEC50 [9]: 6.91 | pEC50 [10]: 6.61 | pEC50 [11]: 6.77 | pEC50 [12]: 6.73 | pEC50 [13]: 6.67 | pEC50 [14]: 7.04 | pEC50 [15]: 6.32 | pEC50 [16, 56]: 7.47 | pEC50 [16, 57]: 6.89 | pEC50 [16, 58]: 6.52
Compound: CN1CCN(c2cc(C(=O)Nc3cc4cc(-c5cnn(C)c5N)ccc4cn3)ccn2)CC1 [Compound 75]
pEC50 [7]: 6.78

EC50 [1, 17]: 9.92 µM | EC50 [1, 18]: 7.05 µM | EC50 [1, 19]: > 10 µM | EC50 [1, 20]: 8.42 µM | EC50 [2, 21]: 8.56 µM | EC50 [2, 22]: > 10 µM | EC50 [2, 23]: > 10 µM | EC50 [2, 24]: 7.15 µM | EC50 [3, 25]: > 10 µM | EC50 [3, 26]: 0.675 µM | EC50 [3, 27]: 2.25 µM | EC50 [3, 28]: 4.87 µM | EC50 [3, 29]: 7.97 µM | EC50 [3, 30]: 3.24 µM | EC50 [3, 31]: 3.81 µM | EC50 [3, 32]: 2.18 µM | EC50 [3, 33]: 1.63 µM | EC50 [3, 34]: 3.96 µM | EC50 [3, 35]: 6.76 µM | EC50 [3, 36]: 6.97 µM | EC50 [3, 37]: 2.51 µM | EC50 [4, 38]: 6.22 µM | EC50 [4, 39]: > 10 µM | EC50 [4, 40]: 5.35 µM | EC50 [4, 41]: 2.53 µM | EC50 [4, 42]: 1.87 µM | EC50 [4, 43]: > 10 µM | pEC50 [5, 44]: < 5.00 | pEC50 [5, 45]: < 5.00 | pEC50 [5, 46]: 6.06 | pEC50 [5, 47]: 5.04 | pEC50 [5, 48]: 5.25 | pEC50 [6, 49]: < 5.00 | pEC50 [6, 50]: < 5.00 | pEC50 [6, 51]: < 5.00 | pEC50 [6, 52]: 5.23 | pEC50 [6, 53]: < 5.00 | pEC50 [6, 54]: < 5.00 | pEC50 [6, 55]: < 5.00 | pEC50 [8]: < 5.00 | pEC50 [9]: 5.22 | pEC50 [10]: 6.06 | pEC50 [11]: 5.26 | pEC50 [12]: < 5.00 | pEC50 [13]: 5.06 | pEC50 [14]: 6.51 | pEC50 [15]: < 5.00 | pEC50 [16, 56]: 5.31 | pEC50 [16, 57]: < 5.00 | pEC50 [16, 58]: < 5.00
Compound: O=C(Nc1ccc(OCCN2CCCC2)cc1)c1n[nH]cc1/C=C/c1cccnc1 [Compound 92]
pEC50 [7]: 5.17
